Laboratory results reported in patent publication US20200308546A1, “ENGINEERED CARDIOMYOCYTES AND USES THREOF” (THE J. DAVID GLADSTONE INSTITUTES, A TESTAMENTARY TRUST …, priority 2016, published 2020).

Tests used:
iWT cardiomyocytes = experiment: Traction force microscopy of paced engineered cardiomyocytes (force generation, beat rate), iWT; format: cell-based, human; conditions: wild-type cells, FIGS. 93-95
From the text: FIG. 93 is a set of graphs showing force generation of engineered cardiomyocytes treated with a PI3K inhibitor (left) or PI3K activator (right). Relative change in force generation between iWT (black) and G296S (grey) cardiomyocytes after inhibition (circle) or activation (triangle) of P13K signaling. Traction force microscopy (TFM) measurements of CMs responding accurately to 1 Hz pacing. Data are mean±sem, *,p<0.05, **,p<0.005, ***p<0.0005 (Mann-Whitney test).
FIG. 94 is a schematic illustrating the postulated protein-protein interaction in wild-type (top) and G296S mutant (bottom) cardiomyocytes. Beat rate measurements between iWT (black) and G296S (grey) cardiomyocytes after inhibition (circle) or activation (triangle) of P13K signaling. TFM measurements of cardiomyocytes responding accurately to 1 Hz pacing. Data are mean±sem, *,p<0.05, ** p<0.005, ***p⋅<0.0005 (Mann-Whitney test).
A “scale-free” network (Barabasl and Albert, ⋅1999) of 716 nodes connected by 2,353 edges with an average 6.6 neighbors and path length of 4.3 (FIG. 90). Nodes were connected by edges representing physical (protein-protein) or functional (genetic, co-expression, co-occurrence) interactions. At least 5 sub-networks connected through 20 regulatory “hubs” were identified. […]

[1] = tested on: hiPS cell-derived cardiomyocytes; experiment: Calcium flux measurements of hiPS cell-derived cardiomyocytes; format: cell-based, human; conditions: isoproterenol followed by carbachol, FIG. 17
From the text: A step-wise differentiation protocol was used to generate purified cardiomyocytes from the above-described iPS cell lines (FIG. 12) (Lian et al, 2012; Tohyama et al.,2013). […] The iPS cardiomyocytes spontaneously contracted, expressed high levels of sarcomeric and myofibril markers, and had membrane electrophysiology and gene expressions similar to human cardiomyocytes; 30% were binucleated (FIGS. 15 and 16). […] The protocol thus generated functional human cardiomyocytes suitable for deeper interrogation of cell identity and function.

O=c1cc(N2CCOCC2)oc2c(-c3ccccc3)cccc12 [LY294002]
beat rates (iWT cardiomyocytes): no effect

C[N+](C)(C)CCOC(N)=O [carbachol]
calcium flux response [1]: expected response

CC(C)NCC(O)c1ccc(O)c(O)c1 (stereo not drawn) [isoproterenol]
calcium flux response [1]: expected response
